Read-outs that look alike come from different tables or passages of the source. Where a SMILES comes first, the peptide text is derived from it. [ ]: non-standard residue; d: D form. The star is where a group is joined. Hyp = O=C(O)[C@@H]1C[C@@H](O)CN1; Lauroyl = CCCCCCCCCCCC(=O)*
Assays:
primary fibroblast [1] = assay type: cell-based
Experimental: (§1) The cytotoxicity of lipopeptide conjugates or their pharmaceutically acceptable salts was assessed in immortalized human cell lines, human primary fibroblast cells independently, separately using two assays, XTT and LDH. Approximately, 5×10^3 fibroblast human cell line BR1N, human primary fibroblast cells or HaCaT cells in 200 µl DMEM supplemented with 10% FCS per well were seeded in 96-well plate and incubated for 24 h (37°C, 5%CO2). Culture medium was replaced with fresh DMEM, and then the cells were exposed to lipopeptide conjugate or its pharmaceutically acceptable salt solutions administered in DMEM at the final concentration in the range from 1 µg mL^-1 to 1000 µg mL^-1. In the experiments, cells in DMEM medium treated with 0.9% solution of Triton X-100 were used as positive control (K+, 100% mortality), untreated cells in DMEM medium were assayed as a negative control (K-). After incubation, cytotoxicity was assessed by measuring the activity of the intracellular cytoplasmic enzyme - lactate dehydrogenase (LDH) and decrease in cell viability measured by a decrease in mitochondria metabolism activity to XTT reduction. The rapidly release of LDH enzyme into the cell culture supernatant is correlated with the plasma membrane damage and cell death. The LDH enzyme release was measured after removal of the supernatant, colorimetrically by incubation with reagent containing 2[4-iodophenyl]-3-[4-nitrophenyl]-5-phenyltetrazolium chloride. The absorbance measured at a wavelenght of 490nm using microplate reader Perkin Elmer spectrophotometer was proportional do LDH activity and the number of damaged cells. The XTT test was performed by adding the XTT solution to each test well. After incubation time at 37°C, the absorbance was measured at a wavelenght of 490nm. Average of absorbance measurements from 3 independent experiments was used to estimate the cell death. The mean absorbance from control wells was considered as 0% (negative control) and 100% (positive control) of cell mortality.

[2] = system: human keratinocyte primary culture; test: Keratinocyte proliferation in the wound closure setting; assay type: cell-based; conditions: relative to non-stimulated DMEM (K), mean±SD
primary fibroblast cells = test: In vitro wound healing (closure) assay with IBIDI culture inserts, fibroblast migration; assay type: cell-based, human
Experimental: In vitro wound healing (closure) assay using IBIDI culture inserts were performed according to literature. Briefly, cell suspension (1,5×10^4) was seeded in Culture-insert 2 well in 70µl of growth medium (DMEM) and cultured for 24 h (37°C, 5%CO2) to form a monolayer. After removal of the Culture-insert, the newly created cell-free gap (wound) was wahed with DMEM followed by PBS. Cell monolayer was also preincubated for 30 min in the presence of mitomycin C (8µg/mL), as a DNA replication and cell proliferation inhibitor. A fresh DMEM and the cells were treated with a pharmaceutical composition containing a lipopeptide conjugate or pharmaceutically acceptable salt and incubated for 24h (37°C, 5%CO2). The cultures in DMEM (K+) was incubated under the same conditions as described above. After overnight incubation, the media was removed, cells were rinsed with sterile PBS and then 1% paraformaldehyde (PFA) was added. After 20 minutes, the cells were washed with PBS and stained with 0.05% crystal violet solution. The stained cells were washed with PBS and then distilled water was added to each well. The wounded areas were visualized microscopically and photographed by microscope (Zeiss). Photographs from the process of human fibroblasts migration after treatment with a pharmaceutical composition containing a lipopeptide conjugate or a pharmaceutically acceptable salt thereof at a given concentration are shown in Figure 7. Cell migration was analyzed using Imaging Software NIS-Elements Basic Research. Alternatively, the migration rate was expressed as the percentage of area reduction (wound closure) compared to the control K. Data of at least independent experiments (n=3) were shown in Figure 4. […] However, lipopeptide conjugates at a concentration of 0.01µg/mL regulated independently both processes, including fibroblast proliferation and migration.
The wound area reduced by 10.3-20.7% as cell migration progresses in comparison to control. This effect was statistically significant. The migration of primary fibroblast cells was enhanced after 24 hours of lipopeptide conjugates treatment. […]

HaCaT [3] = test: Cytotoxicity, LDH release assay; assay type: cell-based, human; conditions: 10% decrease in viability, tested 1÷1000 µg/mL
Experimental: as §1

HaCaT [4] = test: Cytotoxicity, XTT viability assay (MTT in Table 5); assay type: cell-based, human; conditions: MTT (so in the source), 10% decrease in viability, tested 1÷1000 µg/mL
Experimental: as §1

BALB/c mice = test: In vivo full-thickness excision wound healing; parameters: species or system Mus musculus BALB/c mice; conditions: preparation 0.1% w/w daily d0÷d10 or 4.0% w/w at d0, d3, d7, d10; versus control
Experimental: 8-10 week-old female Mus musculus BALB/c mice (purchased from Tri-City Academic Laboratory Animal Centre-Research nad Services Centre) were used in the study. The experiments were carried out in Tri-City Academic Laboratory Animal Centre - Research and Services Centre according to the approved guidelines of Local Ethics Committee of Animal Experimentation in Bydgoszcz (permit No. 31/2018). Mice were housed under standard conditions, with ad libitum access to food pellets and tap water, and kept under control conditions (22±2°C, relative humidity 55±10%, 12/12 light/darck cycle).
In experiments, mice were divided into groups i.e. control groups (n=6) and experimental groups (n=6). The animals were anesthetized with 3÷5% isoflurane. […] The progress of the wound healing process was assessed according to the defined administration schedule at intervals (d0, d3, d7, d10, d14). […] Wound surfaces were each photographed with a Nikon Coolpix S5100 camera and calculated with the use of Image J. Wound healing (restoration of a full-layer skin) is interpreted as the percentage reduction of the original wound area over time. The process of reepithelization was also assessed, indicating the surface of new epithelium extending. […]

human erythrocytes = assay type: cell-based
Experimental: Hemolytic activity was determined by incubating 2% suspension of erythrocytes from healthy human blood (n=3)) with serial dilutions of each selected lipopeptide conjugates (at concentration range from 1000µg/mL to 10µg/mL). Fresh erythrocytes were collected by centrifugation for 10 min at 500xg, washed three times with PBS and diluted to a concentration of 2% in PBS. Erythrocytes were incubated with lipopeptide conjugate, but also with 1% Triton X-100 (positive control), in PBS (blank) at 37°C for 1 hour. After incubation, the plates were centrifuged at 500×g for 10 min, and the supernatants were transferred to new clean wells. Release of hemoglobin was measured as the absorbance of the supernatants at a wavelength of 540 nm using microplate reader (Victor PerkinElmer). The relative optical density compared to the suspension treated with 1% Triton X-100 was defined as the percentage of hemolysis. The results present HC10, HC50 defined as the lowest concentration of lipopeptide conjugate that induced 10% and 50% cell lysis, respectively. The novel lipopeptide conjuagtes have a lack of hemolytic activity at the wide range of concentrations in relation to their biological effect. These lipopeptide conjugates induced 10% of cell lysis at concentration range from 0.19 to 1.62 mM (Table 6). […]

BR1N [5] = test: Cytotoxicity, LDH release assay; assay type: cell-based, human; conditions: 10% decrease in viability, tested 1÷1000 µg/mL
Experimental: as §1

BR1N [6] = test: Cytotoxicity, XTT viability assay (MTT in Table 5); assay type: cell-based, human; conditions: MTT (so in the source), 10% decrease in viability, tested 1÷1000 µg/mL
Experimental: as §1

primary fibroblast [7] = test: Cytotoxicity, XTT viability assay (MTT in Table 5); assay type: cell-based, human; conditions: MTT (so in the source), tested 1÷1000 µg/mL; for EC10: 10% decrease in viability
Experimental: as §1

CCCCCCCCCCCC(=O)NCC(=O)N1CCC[C@H]1C(=O)N[C@@H](CCCCN)C(N)=O [Lipopeptide conjugate 1] (Lauroyl-Gly-Pro-Lys-NH2)
EC10 (primary fibroblast [1]): 890.9±171. 9 µM | Keratinocyte proliferation [n-times of control] ([2]; 0.01 µg/mL): 1.08±0.04 n-times of control | Keratinocyte proliferation [n-times of control] ([2]; 0.10 µg/mL): 1.08±0.04 n-times of control | Percentage wound area reduction observed at (primary fibroblast cells; primary fibroblast cells, tested at 0.01 and 0.10 µg/mL): 10-fold increased concentrations | EC10 (HaCaT [3]): 537.1 ± 45.3 µM | EC10 (HaCaT [4]): 254.1 ± 85.5 µM | Differences in wound size and coverage of the wound with a new epithelial layer (BALB/c mice): visible from Day 3 | HC10 (human erythrocytes): 0.2962 mM | HC50 (human erythrocytes): > 1.0387 mM | HC10 (human erythrocytes; red cells of human, 1 h): 142.5 µg/mL | HC50 (human erythrocytes; red cells of human, 1 h): > 500 µg/mL

CCCCCCCCCCCC(=O)NCC(=O)N1C[C@H](O)C[C@H]1C(=O)N1C[C@H](O)C[C@H]1C(=O)N[C@@H](CCCCN)C(N)=O [Lipopeptide conjugate 2, N^α-lauroyl-Gly-Hyp-Hyp-Lys-NH2] (Lauroyl-G[Hyp][Hyp]K-NH2)
EC10 (primary fibroblast [1]): 409.6 ± 66.9 µM | EC10 (BR1N [5]): 432.8 ± 34.5 µM | EC10 (HaCaT [3]): 346.9 ± 35.0 µM | EC10 (BR1N [6]): 327.6 ± 40.9 µM | EC10 (primary fibroblast [7]): 431.2 ± 34.7 µM | HC10 (human erythrocytes): 0.1858 mM | HC10 (human erythrocytes; red cells of human, 1 h): 113.4 µg/mL

CCCCCCCCCCCC(=O)NCC(=O)N1CCC[C@H]1C(=O)N1C[C@H](O)C[C@H]1C(=O)N[C@@H](CCCCN)C(N)=O [Lipopeptide conjugate 3, N^α-lauroyl-Gly-Pro-Hyp-Lys-NH2] (Lauroyl-GP[Hyp]K-NH2)
EC10 (primary fibroblast [1]): 420.6 ± 42.1 µM | Keratinocyte proliferation [n-times of control] ([2]; 0.01 µg/mL): 1.29±0.17 n-times of control | Keratinocyte proliferation [n-times of control] ([2]; 0.10 µg/mL): 1.34±0.11 n-times of control | concentration that facilitates primary human fibroblast cell migration (primary fibroblast cells; 24 h treatment): < 0.1 µg/mL | reduction of the wound surface (primary fibroblast cells; aqueous solution, 0.01 µg/mL, compared to the control, primary human fibroblast cells): 18.29% | EC10 (HaCaT [3]): 171.4 ± 78.3 µM | EC10 (BR1N [6]): >504.7 µM | EC10 (primary fibroblast [7]): 399.7 ± 35.8 µM | EC50 (primary fibroblast [7]; 50% decrease in viability): 685 ± 138 µM | EC10 (HaCaT [4]): 210.2 ± 110.4 µM | Differences in wound size and coverage of the wound with a new epithelial layer (BALB/c mice): visible from Day 3 | HC10 (human erythrocytes): 1.6169 mM | HC10 (human erythrocytes; red cells of human, 1 h): 961.1 µg/mL

From patent EP3925626A1, “LIPOPEPTIDE CONJUGATES AND THEIR SALTS, METHOD OF MANUFACTURE OF LIPOPEPTIDE CONJUGATES AND THEIR SALTS, PHARMACEUTICAL COMPOSITION COMPRISING A LIPOPEPTIDE CONJUGATE AND ITS SALTS FOR THE TREATMENT OF CHRONIC WOUNDS” (priority 2020, dated 2021)
